These results are taken from patent publication US20090069317A1, “Insecticidal Methods Using 3-Amino-1,2-Benzisothiazole Derivatives” (BASF SE, priority 2005, published 2009).

Each structure is given as a SMILES string.

The mortality is the percentage killed.

For the assay, the system named is Cotton Aphid (Aphis gossypii). The experiment in a line: Cotton aphid (Aphis gossypii) cotyledon dip test, mortality. It counts as in vivo. To be noted: 120 h, cotton cotyledons dipped, mortality counts after 5 days, read-out: mortality in comparison with untreated controls. The source says: B.1 Cotton Aphid (Aphis gossypii)
The active compounds were formulated in 50:50 acetone:water and 100 ppm Kinetic® surfactant.
Cotton plants at the cotyledon stage (one plant per pot) were infested by placing a heavily infested leaf from the main colony on top of each cotyledon. The aphids were allowed to transfer to the host plant overnight, and the leaf used to transfer the aphids was removed. The cotyledons were dipped in the test solution and allowed to dry. After 5 days, mortality counts were made.

As to `O=S1(=O)N=C(N2CCCC2)c2c(Cl)cccc21` [Compound 1], the mortality at 300 ppm is > 86%.
With `C=CCN(CC=C)C1=NS(=O)(=O)c2cccc(Cl)c21` [Compound 10] the figure was > 86%; with `CCN(CC(F)(F)F)C1=NS(=O)(=O)c2cccc(Cl)c21` [Compound 13], > 86%; with `C#CC(C)N(C1=NS(=O)(=O)c2cccc(Cl)c21)C(C)C` (stereo not shown) [Compound 14], > 86%.
Under `COC(OC)C(C)N(C)C1=NS(=O)(=O)c2cccc(Cl)c21` (stereo not shown) [Compound 16] stands > 86%; under `COC(CN(C)C1=NS(=O)(=O)c2cccc(Cl)c21)OC` [Compound 17], > 86%.
For `COC(C)CN(C)C1=NS(=O)(=O)c2cccc(Cl)c21` (stereo not shown) [Compound 18], the mortality at 300 ppm is > 86%.
With `C=CCN(C)C1=NS(=O)(=O)c2cccc(Cl)c21` [Compound 20] the figure was > 86%; with `C#CCN(C)C1=NS(=O)(=O)c2cccc(Cl)c21` [Compound 21], > 86%; with `CC(C)CN(C)C1=NS(=O)(=O)c2cccc(Cl)c21` [Compound 22, (4-Chloro-1,1-dioxo-1H-1λ^6-benzo[d]isothiazol-3-yl)-isobutyl-methyl-amine], > 86%.
With `COc1cccc2c1C(N1CCOCC1)=NS2(=O)=O` [Compound 26] the figure was > 86%; with `C#CCN(C1=NS(=O)(=O)c2cccc(OC)c21)C(C)C` [Compound 29], > 86%.
With `CC(C)N(C1=NS(=O)(=O)c2cccc(OC(F)F)c21)C1CC1` [Compound 35] the figure was > 86%; with `CC(C)CN(C)c1nsc2cccc(Cl)c12` [Compound 44], > 86%.
For `C=CCN(C)c1nsc2cccc(Cl)c12` [Compound 45], the mortality at 300 ppm was > 86%.
Under `COC(CN(C)c1nsc2cccc(Cl)c12)OC` [Compound 46] stands > 86%; under `CC(C)N(C)C1=NS(=O)(=O)c2cccc(Cl)c21` [Compound 52], > 86%; under `COc1cccc2c1C(N(C)C)=NS2(=O)=O` [Compound 54], > 86%.
Consider `COc1cccc2c1C(N(C(C)C)C1CC1)=NS2(=O)=O` [Compound 55], for which the mortality at 300 ppm was > 86%.
With `CN(CC(F)(F)F)C1=NS(=O)(=O)c2cccc(Cl)c21` [Compound 56] the figure was > 86%.
Under `CCN(C)c1nsc2ccc(I)c(Cl)c12` [Compound 60] stands > 86%; under `CCN(CC)c1nsc2ccc(I)c(Cl)c12` [Compound 61], > 86%.
As to `CN(C)C1=NS(=O)(=O)c2cccc(F)c21` [Compound 63], the mortality at 300 ppm was > 86%.
With `CCN(CC)C1=NS(=O)(=O)c2cccc(F)c21` [Compound 65] the figure was > 86%; with `C#CCN(C)C1=NS(=O)(=O)c2cccc(F)c21` [Compound 66], > 86%; with `CCCN(CCC)C1=NS(=O)(=O)c2cccc(F)c21` [Compound 67], > 86%.
Take `CCCN(C)C1=NS(=O)(=O)c2cccc(F)c21` [Compound 68]: the mortality at 300 ppm is > 86%.
As to `C=CCN(C)C1=NS(=O)(=O)c2cccc(F)c21` [Compound 69], the mortality at 300 ppm is > 86%.
As for `CC(C)CN(C)C1=NS(=O)(=O)c2cccc(F)c21` [Compound 70], the mortality at 300 ppm is > 86%.
With `CC(C)N(C1=NS(=O)(=O)c2cccc(F)c21)C1CC1` [Compound 71] the figure was > 86%; with `C#CCN(C1=NS(=O)(=O)c2cccc(F)c21)C(C)C` [Compound 72], > 86%; with `CC(C)CN(C)c1n[s+]([O-])c2cccc(Cl)c12` (stereo not shown) [Compound 77], > 86%.
Consider `CCN(C)c1nsc2cccc(F)c12` [Compound 79], for which the mortality at 300 ppm was > 86%.
Regarding `COc1cccc2c1c(N(C)CC(C)C)n[s+]2[O-]` (stereo not shown) [Compound 84], the mortality at 300 ppm was > 86%.
